{"source": "patent US11236303B2", "about": "“CD34+CD41DIM megakaryocytes progenitors and uses thereof for producing proplatelet-bearing MKs and/or platelets” (INSTITUT NATIONAL DE LA SANTE ET DE LA RECHERCHE MEDICALE …, priority 2015, dated 2022)", "assay_type_in_all_cases": "cell-based, human", "key": {"[1]": {"tested_on": "peripheral blood CD34+ cells", "assay": "CD34/CD41 expression by flow cytometry in MK differentiation culture", "procedure": "(§1) CD34^+ cells were seeded in 48-well plates at a density of 4×10^4 per mL in StemSpan SFEM medium supplemented with 20 ng/mL human LDL and CC220 (1×), a cocktail of cytokines containing SCF, TPO, IL-6 and IL-9 (all from Stemcell Technologies), with or without addition of 1 μM SR1 (Cellagen Technology, San Diego, Calif.) (FIG. 1A). On day 7, the cells were harvested, washed and seeded at 5×10^4/mL in StemSpan SFEM medium containing 30 ng/mL TPO with or without 1 μM SR1 for an additional 7 days. The cultures were incubated at 37° C. under normoxic conditions and 5% CO2. On days 7 and 10 of culture, the cells were counted, their viability was measured by propidium iodide exclusion in an automatic cell counter (ADAM, Digital-Bio, Korea) and the expression of CD34, CD41 and CD42b was analyzed in a Gallios flow cytometer using Kaluza software (Beckman Coulter, Villepinte, France). In some experiments, SR1 was replaced by the AhR agonist FICZ (Enzo life sciences, Villeurbane, France) added at 0.2 μM.\n(§2) In a second protocol, CD34^+ cells were cultured in the presence of mesenchymal stromal cells (MSCs) isolated from human bone marrow (Guilloton F et al., Blood. 2012; 119:2556-2567). MSCs were maintained in α-MEM medium supplemented with 10% fetal bovine serum (Invitrogen, Cergy Pontoise, France) and 2 ng/mL recombinant human (rh) FGF2 (Peprotech, Rocky Hill, N.J.). CD34^+ cells were added to a confluent layer of MSCs at a density of 4×10^4/mL in 48-well plates in StemSpan SFEM medium supplemented with 20 ng/mL human LDL and CC220. On day 7, the cells in suspension were harvested, washed and co-cultured at 5×10^4/mL on a new layer of confluent MSCs in StemSpan SFEM medium containing 30 ng/mL TPO for an additional 7 days (FIG. 5A).\nSurface Markers. Cells were analyzed by flow cytometry (Gallios, Beckman Coulter, France) after labeling with anti-CD34-PE-Cy7 (Beckman Coulter, Fullerton, Calif.), anti-CD41-Alexa-488 (ALMA.17), anti-CD42c-PE (RAM.1) and anti-CD42d-Alexa-647 (V.1) mAbs for 30 min at 4° C. The cells were then washed and resuspended in PBS containing 7-AAD (1/50). The acquired data were analyzed with Kaluza software."}, "[2]": {"tested_on": "peripheral blood CD34+ cells", "assay": "Quantification of proplatelet-bearing MKs in two-step culture of CD34+ cells", "procedure": "as §1\n(§3) The percentage of MKs extending proplatelets was determined in the culture wells by phase-contrast microscopy. In each culture, at least 100 MKs were analyzed and images were acquired using a Zeiss Axio Vert.A1 microscope with a 20× objective (Marly-le-Roi, France)."}, "[3]": {"tested_on": "CYP1B1", "assay": "CYP1B1 mRNA expression by qPCR (downstream target of AhR)", "procedure": "CD41/61 cells were obtained on day 7 or 10 of culture using the antibody ALMA.17 and magnetic beads (EasySep® “Do-It-Yourself” Selection Kit, StemCell Technologies). Total RNA were extracted using an RNeasy® Mini kit (QIAGEN) following manufacturer's instructions. Quantity and quality of total RNA for all samples were evaluated by measuring OD at 260 nm and concentration was adjusted at 50 ng/ml. The RNA samples were stored at −80° C. until use. qRT-PCR was applied under standard conditions using the SYBR Green Master Mix kit on the ABI Prism 7900 Sequence Detection System (PerkinElmer-Cetus, Courtaboeuf, France). The primers for genes were chosen with the assistance of the Oligo 6.0 program (National Biosciences, Plymouth, Minn.) and have been previously described (Bieche I. et al., Pharmacogenetics and genomics. 2007; 17:731-742)."}, "[4]": {"tested_on": "peripheral blood CD34+ cells", "assay": "Determination of the number of platelets produced per seeded cell, two-step culture of CD34+ cells", "procedure": "as §1\nas §2, with “On day 7, the cells in suspension were harvested, washed and co-cultured at 5×10^4/mL on a new layer of confluent MSCs in StemSpan SFEM medium containing 30 ng/mL TPO for an additional 7 days (FIG. 5A).” left out\nCD34^+ cells cultured for 7 days in the presence of CC220 (FIGS. 1A and 5A) or CD34/CD41 sorted cells (FIGS. 4A and 6A) were seeded in a medium containing TPO. […] CD41/CD42c double positive events, having the same scattering properties as washed blood platelets, were counted as platelet-like particles and the number of particles per seeded cell, at day 7 or 10 following experiments, was determined."}, "[5]": {"tested_on": "CD34+CD41dim cells", "assay": "Quantification of proplatelet-bearing MKs from sorted CD34+CD41dim cells", "procedure": "(§4) The cells recovered on day 10 were incubated with a mixture of Alexa-488-conjugated anti-CD41 (ALMA.17) and PE-Cy7-conjugated anti-CD34 mAbs (BD Biosciences) for 30 min at 4° C. They were then washed in PBS-EDTA and incubated for 30 min in PBS containing 7-AAD (1/50) to select viable cells. The morphologic and sorting gates were determined by FMO (fluorescence minus one) analysis and megakaryocytic precursors were sorted at 500 cells/s according to their CD34/CD41 expression using a FACS Aria II flow cytometer (Becton Dickinson, Mountain View, Calif.) equipped with a 50 μm nozzle and two argon lasers operating at 500 mW and tuned to 488 and 360 nm, respectively (Coherent Radiation, Palo Alto, Calif.). The sorted CD34^+CD41^dim and CD34 CD41^+ cells were then counted and seeded at 4×10^4/mL in 48-well plates in StemSpan medium containing TPO with or without SR1 for 7 days (FIG. 4A).\nas §3"}, "[6]": {"tested_on": "peripheral blood CD34+ cells", "assay": "Two-step MK differentiation culture: level of proliferation (viable cell count)", "procedure": "as §1"}, "[7]": {"tested_on": "CD34+CD41dim cells", "assay": "Number of platelet-like elements produced per seeded sorted CD34+CD41dim cell", "procedure": "as §4, with “4A). CD34^+ cells cultured for 7 days in the presence of CC220 (FIGS. 1A and 5A) or CD34/CD41 sorted cells (FIGS. 4A and 6A) were seeded in a medium containing TPO. […] CD41/CD42c double positive events, having the same scattering properties as washed blood platelets, were counted as platelet-like particles and the number of particles per seeded cell, at day 7 or 10 following experiments, was determined.” for “4A).”"}, "[8]": {"settings": "SR1-derived CD34+CD41dim cells sorted day 10, 7 days in TPO + SR1 (5 μM)"}}, "note": "“And” between values parts separate entries of the source, which are not always exact repeats. Equal values may be shown once.", "data": [{"smiles": "O=Cc1c2[nH]c3ccccc3c2cc2[nH]c3ccccc3c12", "note": "[FICZ]", "values": [{"measurement": "proportion of CD34+CD41dim cells", "setting": "[1]; MSC co-culture with addition of FICZ, data not shown", "value": "reduced"}, {"measurement": "proplatelet extension of MKs", "setting": "[2]; SR1 replaced by FICZ (0.2 μM)", "value": "dramatic decrease"}, {"measurement": "effect on the MSC-induced decrease in CYP1B1 transcripts", "setting": "[3]; MSC co-culture with addition of FICZ, day 10", "value": "reversed"}, {"measurement": "number of platelet-like elements per cell seeded on day 7", "setting": "[4]; day 14, SR1 replaced by 0.2 μM FICZ", "value": "0.20±0.04", "unit": "platelets/seeded cell"}]}, {"smiles": "CC(C)n1cnc2c(NCCc3ccc(O)cc3)nc(-c3csc4ccccc34)nc21", "note": "[SR1, 4-(2-(2-(benzo[b]thiophen-3-yl)-9-isopropyl-9H-purin-6-ylamino)ethyl)phenol]", "values": [{"measurement": "decrease in CD34 positivity", "setting": "[1]; day 7, expansion step with CC220, SR1-treated", "value": 8.3, "unit": "%"}, {"measurement": "CD34+CD41+ cells, % of total population", "setting": "[1]; day 7, presence of SR1", "value": "68.9±1.8% and 69%"}, {"measurement": "CD34+CD41- cells, % of total population", "setting": "[1]; day 7, presence of SR1", "value": "22.4±1.5", "unit": "%"}, {"measurement": "CD34-CD41+ cells, % of total population", "setting": "[1]; day 7, presence of SR1", "value": "3.6±0.3", "unit": "%"}, {"measurement": "CD34+CD41+ cells, % of the cells", "setting": "[1]; day 10, SR1-treated cultures", "value": "55.1±4.9% and 55%"}, {"measurement": "CD34+CD41dim cells (region R2), % of total cells", "setting": "[1]; day 10, SR1 treatment, mean±SEM in 8 experiments", "value": "36.8±1.9", "unit": "%"}, {"measurement": "proportion of CD34+ cells", "setting": "[1]; day 10, after passage in TPO alone, SR1 treatment", "value": 71.6, "unit": "%"}, {"measurement": "CD34-CD41+ cells, % of the cells", "setting": "[1]; day 10, presence of SR1", "value": "26.7±4.5", "unit": "%"}, {"measurement": "percentage of MKs extending proplatelets", "setting": "[5]; MSC-derived CD34+CD41dim cells sorted day 10, 7 days in TPO + 5 μM SR1, n=4", "value": "49.5±10.5", "unit": "%"}, {"measurement": "percentage of MKs extending proplatelets", "setting": "[5]; [8]", "value": "91.0±2.4", "unit": "%"}, {"measurement": "proportion of the MKs produced that are proplatelet-bearing MKs", "setting": "[5]; from seeded CD34+CD41dim cells, summary statement", "value": "About 90%"}, {"measurement": "percentage of MKs extending proplatelets", "setting": "[2]; day 14, 1 μM SR1, CC220 day 0-7 then TPO day 7-14", "value": "34.6±2.1", "unit": "%"}, {"measurement": "CYP1B1 expression", "setting": "[3]; day 7 culture, SR1 treated cells, control 579.8±40.8, n=3", "value": "2.5±0.8", "unit": "arbitrary units"}, {"measurement": "fold expansion of the total nucleated cells", "setting": "[6]; day 7, over input of CD34+ cells on day 0, with SR1, mean±SEM, n=8", "value": "4.2±1.2", "unit": "fold"}, {"measurement": "increase in number of cells from day 7 to day 10", "setting": "[6]; day 7 to day 10, SR1-treated cultures", "value": 2.5, "unit": "times"}, {"measurement": "number of platelet-like elements per seeded cell", "setting": "[7]; [8]", "value": "52.1±8.8 platelets/seeded cell and 52.06±8.79 platelets/seeded cell"}, {"measurement": "enhanced production of platelet-like elements with SR1 as compared to without SR1", "setting": "[7]; sorted CD34+CD41dim cells, 7 days in TPO", "value": 6.8, "unit": "fold"}, {"measurement": "number of platelet-like elements per cell seeded on day 7", "setting": "[4]; day 14, 1 μM SR1", "value": "20.72±5.19", "unit": "platelets/seeded cell"}, {"measurement": "increase in number of platelet particles after addition of SR1 versus control", "setting": "[4]; day 14, per cell seeded on day 7", "value": "about 3 fold"}]}]}
